Structures can show the parent of a compound that is named as a salt. Where two headings read alike, the source gives them in different places.
Columns and labels:
in vitro = conditions: African green monkey
SARS-COV-2 = experiment: microbe, parasite or virus in culture; format: cell-based; parameters: SI (Selectivity Index, CC50/IC50): unit not given here; conditions: for SI (Selectivity Index, CC50/IC50): SARS-COV-2, values >50 assumed to be 50; for IC50: read-out: SARS-COV-2 inhibition (IC50)
[1] = Severe acute respiratory syndrome coronavirus 2, Vero cells, 24 hours infection
[2] = Severe acute respiratory syndrome coronavirus 2, Vero, 24 h

SMILES	CC50 (in vitro)	SI (Selectivity Index, CC50/IC50) (SARS-COV-2)	IC50 (SARS-COV-2; [1])	IC50 (SARS-COV-2; [2])
COc1cc2cc3c(c(-c4cc5c(cc4OC(=O)OC4CCCCC4)OCO5)c2cc1OC)C(=O)OC3 [Example 99, cyclohexyl (6-(6,7-dimethoxy-3-oxo-1,3-dihydronaphtho[2,3-c]furan-4-yl)benzo[d][1,3]dioxol-5-yl)carbonate]	> 50 µM	8.70	5.75 µM	
COc1cc2cc(CO)c(C(=O)NC(C)C)c(-c3cc4c(cc3O)OCO4)c2cc1OC [Example 228, 1-(6-hydroxybenzo[d][1,3]dioxol-5-yl)-3-(hydroxymethyl)-N-isopropyl-6,7-dimethoxy-2-naphthamide]	> 50 µM	1.50	33.4 µM	
COc1cc2cc3c(c(-c4ccc(N5C[C@@H](C)O[C@@H](C)C5)nc4)c2cc1OC)C(=O)OC3 [Example 121, 9-(6-((2S,6R)-2,6-dimethylmorpholino)pyridin-3-yl)-6,7-dimethoxynaphtho[2,3-c]furan-1(3H)-one]	> 50 µM	21.51	2.32 µM	
COc1cc2cc3c(c(-c4ccc5c(N6CCNCC6)ccnc5c4)c2cc1OC)C(=O)OC3 [Example 152, 6,7-dimethoxy-9-(4-(piperazin-1-yl)quinolin-7-yl)naphtho[2,3-c]furan-1(3H)-one]	> 50 µM	2.10	23.8 µM	
COc1ccc2nc(C)cc(-c3c4c(cc5cc(OC)c(OC)cc35)COC4=O)c2c1 [Example 155, 6,7-dimethoxy-9-(6-methoxy-2-methylquinolin-4-yl)naphtho[2,3-c]furan-1(3H)-one]	> 50 µM	1.0	> 50 µM	
COc1cc2cc3c(c(-c4cnc(N5C[C@@H](C)O[C@@H](C)C5)nc4)c2cc1OC)C(=O)OC3 [Example 8, 9-(2-((2S,6R)-2,6-dimethylmorpholino)pyrimidin-5-yl)-6,7-dimethoxynaphtho[2,3-c]furan-1(3H)-one]	> 50 µM	17.39	2.87 µM	
CCCCCCCCCCN(CCCCCCCCCC)c1ncc(-c2c3c(cc4cc(OC)c(OC)cc24)COC3=O)cn1.Cl [Example 87, 9-(2-(didecylamino)pyrimidin-5-yl)-6,7-dimethoxynaphtho[2,3-c]furan-1(3H)-one hydrochloride]	> 50 µM	1.00		> 50 µM
COCCN(C)c1c2c(cc3cc(OC)c(OC)cc13)COC2=O [Example 5, 6,7-dimethoxy-9-((2-methoxyethyl)(methyl)amino)naphtho[2,3-c]furan-1(3H)-one]	> 50 µM	1.00	> 50 µM	
COc1cc2cc3c(c(-c4cc5c(cc4OC(=O)C(C)(C)C)OCO5)c2cc1OC)C(=O)OC3 [Example 276, 6-(6,7-dimethoxy-3-oxo-1,3-dihydronaphtho[2,3-c]furan-4-yl)benzo[d][1,3]dioxol-5-yl pivalate]	> 50 µM	1.00	> 50 µM	
COc1cc2cc3c(c(-c4ccc(N5CCCCC5)nc4)c2cc1OC)C(=O)OC3 [Example 123, 6,7-dimethoxy-9-(6-(piperidin-1-yl)pyridin-3-yl)naphtho[2,3-c]furan-1(3H)-one]	> 50 µM	145.26	0.34 µM	
COc1cc2c(OC)c3c(c(-c4ccc5c(c4)OCO5)c2cc1OC)COC3=O [Example 262, 4-(benzo[d][1,3]dioxol-5-yl)-6,7,9-trimethoxynaphtho[2,3-c]furan-1(3H)-one]	> 50 µM	5.40		9.26 µM
CCN(Cc1ccncc1)c1ccc(-c2c3c(cc4cc(OC)c(OC)cc24)COC3=O)cn1 [Example 226, 9-(6-(ethyl(pyridin-4-ylmethyl)amino)pyridin-3-yl)-6,7-dimethoxynaphtho[2,3-c]furan-1(3H)-one]	> 50 µM	7.47	6.69 µM	
COc1cc2cc3c(c(-c4cnc(N(C)C5CCOCC5)nc4)c2cc1OC)C(=O)OC3 [Example 115, 6,7-dimethoxy-9-(2-(methyl(tetrahydro-2H-pyran-4-yl)amino)pyrimidin-5-yl)naphtho[2,3-c]furan-1(3H)-one]	> 50 µM	48.62	1.03 µM	
COc1cc2c(OC)c3c(c(-c4ccc(N(C)C5Cc6ccccc6C5)nc4)c2cc1OC)COC3=O.Cl [Example 268, 4-(6-((2,3-dihydro-1H-indan-2-yl)(methyl)amino)pyridin-3-yl)-6,7,9-trimethoxynaphtho[2,3-c]furan-1(3H)-one]	> 50 µM	1.00		> 50 µM
COc1cc2cc3c(c(-c4ccc(N5CCC(C)CC5)nc4)c2cc1OC)C(=O)OC3 [Example 159, 6,7-dimethoxy-9-(6-(4-methylpiperidin-1-yl)pyridin-3-yl)naphtho[2,3-c]furan-1(3H)-one]	> 50 µM	32.86	1.52 µM	
CCN(Cc1cccs1)c1ccc(-c2c3c(cc4cc(OC)c(OC)cc24)COC3=O)cn1 [Example 199, 9-(6-(ethyl(thiophen-2-ylmethyl)amino)pyridin-3-yl)-6,7-dimethoxynaphtho[2,3-c]furan-1(3H)-one]	> 50 µM	25.20	1.98 µM	
COCCN(CCOC)c1ncc(-c2c3c(cc4cc(OC)c(OC)cc24)COC3=O)cn1 [Example 72, 9-(2-(bis(2-methoxyethyl)amino)pyrimidin-5-yl)-6,7-dimethoxynaphtho[2,3-c]furan-1(3H)-one]	> 50 µM	1.64	30.4 µM	
COc1cc2cc3c(c(-c4ccc(N(C)C5CCCC5)nc4)c2cc1OC)C(=O)OC3 [Example 177, 9-(6-(cyclopentyl(methyl)amino)pyridin-3-yl)-6,7-dimethoxynaphtho[2,3-c]furan-1(3H)-one]	> 50 µM	180.12	0.28 µM	
COc1cc2cc3c(c(-c4cnc(N(C)c5cccc(C(F)(F)F)c5)nc4)c2cc1OC)C(=O)OC3 [Example 216, 6,7-dimethoxy-9-(2-(methyl(3-(trifluoromethyl)phenyl)amino)pyrimidin-5-yl)naphtho[2,3-c]furan-1(3H)-one]	> 50 µM	52.13	0.96 µM	
COc1cc2cc3c(c(-c4ccc(N5CCC6(CC5)OCCO6)nc4)c2cc1OC)C(=O)OC3 [Example 166, 9-(6-(1,4-dioxa-8-azaspiro[4.5]decan-8-yl)pyridin-3-yl)-6,7-dimethoxynaphtho[2,3-c]furan-1(3H)-one]	> 50 µM	18.50	2.7 µM	
COc1cc2cc3c(c(-c4ccc(N(C)c5nnc(C)s5)nc4)c2cc1OC)C(=O)OC3 [Example 214, 6,7-dimethoxy-9-(6-(methyl(5-methyl-1,3,4-thiadiazol-2-yl)amino)pyridin-3-yl)naphtho[2,3-c]furan-1(3H)-one]	> 50 µM	1.00	> 50 µM	
COc1cc2cc3c(c(N4C[C@@H](C)O[C@@H](C)C4)c2cc1OC)C(=O)OC3 [Example 2, 9-((2S,6R)-2,6-dimethylmorpholino)-6,7-dimethoxynaphtho[2,3-c]furan-1(3H)-one]	> 50 µM	1.00	> 50 µM	
COc1cc2cc3c(c(-c4ccc(N5CCn6c(nnc6C(F)(F)F)C5)nc4)c2cc1OC)C(=O)OC3 [Example 240, 6,7-dimethoxy-9-(6-(3-(trifluoromethyl)-5,6-dihydro-[1,2,4]triazolo[4,3-a]pyrazin-7 (8H)-yl)pyridin-3-yl)naphtho[2,3-c]furan-1(3H)-one]	> 50 µM	1.00	> 50 µM	
CCNc1cccc(-c2c3c(cc4cc(OC)c(OC)cc24)COC3=O)c1 [Example 258, 9-(3-(ethylamino)phenyl)-6,7-dimethoxynaphtho[2,3-c]furan-1(3H)-one]	> 50 µM	3.04	16.5 µM	
CCCCN(C)c1ncc(-c2c3c(cc4cc(OC)c(OC)cc24)COC3=O)cn1 [Example 71, 9-(2-(butyl(methyl)amino)pyrimidin-5-yl)-6,7-dimethoxynaphtho[2,3-c]furan-1(3H)-one]	> 50 µM	234.36		0.21 µM
CCN(CC1CCCO1)c1ccc(-c2c3c(cc4cc(OC)c(OC)cc24)COC3=O)cn1 (stereo not drawn) [Example 193, 9-(6-(ethyl((tetrahydrofuran-2-yl)methyl)amino)pyridin-3-yl)-6,7-dimethoxynaphtho[2,3-c]furan-1(3H)-one]	> 50 µM	6.46	7.74 µM	
CNc1ncc(-c2c3c(cc4cc(OC)c(OC)cc24)COC3=O)cn1 [Example 108, 6,7-dimethoxy-9-(2-(methylamino)pyrimidin-5-yl)naphtho[2,3-c]furan-1(3H)-one]	> 50 µM	18.03	2.77 µM	
COC[C@H]1CCCN1c1ncc(-c2c3c(cc4cc(OC)c(OC)cc24)COC3=O)cn1 [Example 102, (R)-6,7-dimethoxy-9-(2-(2-(methoxymethyl)pyrrolidin-1-yl)pyrimidin-5-yl)naphtho[2,3-c]furan-1(3H)-one hydrochloride]	> 50 µM	30.41		1.64 µM
CCN(c1ccc(-c2c3c(cc4cc(OC)c(OC)cc24)COC3=O)cn1)C(C)C [Example 182, 9-(6-(ethyl(isopropyl)amino)pyridin-3-yl)-6,7-dimethoxynaphtho[2,3-c]furan-1(3H)-one]	> 50 µM	75.67	0.66 µM	
